Measured values published in US20110038957A1, “NOVEL NUTRACEUTICAL COMPOSITIONS CONTAINING STEVIA EXTRACT OR STEVIA EXTRACT CONSTITUENTS AND USES THEREOF” (priority 2007, published 2011).
Read-outs that look alike come from different tables or passages of the source.

Columns and labels:
[1] = target: T1, human glycine transporter 1b (GlyT1) (Homo sapiens, UniProt P48067); test: Inhibition of glycine transporter 1 in a cellular assay ([3H]-glycine uptake into CHO cells); assay type: cell-based; settings: pure compounds, CHO cells expressing GlyT1, 60 nM [3H]-glycine, 30 minutes, room temperature; for IC50: read-out: IC50 for tritiated glycine uptake
T1 construct: expressed in transfected cells
T1 sequence (P48067 1-652 isoform P48067-3): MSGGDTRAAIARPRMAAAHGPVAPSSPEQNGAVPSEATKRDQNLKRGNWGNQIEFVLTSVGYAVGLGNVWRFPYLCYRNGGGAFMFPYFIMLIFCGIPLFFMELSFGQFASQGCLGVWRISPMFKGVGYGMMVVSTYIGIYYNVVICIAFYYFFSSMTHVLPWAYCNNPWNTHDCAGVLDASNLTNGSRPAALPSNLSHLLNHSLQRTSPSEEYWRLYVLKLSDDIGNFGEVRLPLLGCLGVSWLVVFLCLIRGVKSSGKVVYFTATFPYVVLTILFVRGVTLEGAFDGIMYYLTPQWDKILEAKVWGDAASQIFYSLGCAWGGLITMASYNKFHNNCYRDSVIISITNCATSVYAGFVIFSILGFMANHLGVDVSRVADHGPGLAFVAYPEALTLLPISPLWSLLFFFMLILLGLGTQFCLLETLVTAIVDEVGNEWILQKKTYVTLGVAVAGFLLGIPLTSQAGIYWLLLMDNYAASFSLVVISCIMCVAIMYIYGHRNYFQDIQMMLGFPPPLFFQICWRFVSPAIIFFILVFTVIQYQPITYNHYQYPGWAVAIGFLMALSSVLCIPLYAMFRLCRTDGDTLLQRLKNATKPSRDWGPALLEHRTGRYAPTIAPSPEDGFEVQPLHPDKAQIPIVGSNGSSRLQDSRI
Experimental: CHO cells stably expressing the human glycine transporter 1b cDNA (GlyT1) were routinely grown in Dulbecco's Modified Eagle's Medium (Invitrogen, Carlsbad, USA) containing 10% dialysed foetal calf serum, penicillin, streptomycin, proline and the antibiotic G418. Cells were harvested by trypsinisation one day prior to the assay and were seeded in the above mentioned medium. Immediately prior to the assay, the medium was replaced by uptake buffer containing 150 mM NaCl, 1 mM CaCl2, 2.5 mM KCl, 2.5 mM MgCl2, 10 mM Glucose and 10 mM N-2-hydroxyethylpiperazine-N′-2-ethanesulfonic acid (HEPES buffer).
Glycine uptake into the cells was determined by addition of 60 nM radio-labelled [^3H]-glycine (Amersham Biosciences GE Healthcare, Slough, UK) and incubation for 30 minutes at room temperature. Following removal of unincorporated label by gentle washing three times with the above buffer, incorporated glycine was quantified by liquid scintillation counting.

[2] = tested on: GluR1 (cell surface presence of AMPA receptor 1); test: Hippocampal slice cultures, immunohistochemistry of synaptic marker GluR1; assay type: cell-based, Wistar rats; set-up: key to GluR1, relative activation of synaptic marker: ++++ shows a qualitative maximal activation; ++ and + signify a half-maximum and a moderate activation, respectively; ++ and + signify a half-maximum and a moderate activation, respectively; ± indicates no change in immunoreactivity; settings: 15 min treatment after 48 h in culture; vs sister cultures treated with buffer
Experimental: (§1) Seven-day-old Wistar rats were decapitated using a guillotine. In less than 1 minute the skull was opened, the cerebral hemispheres were separated and transferred and both hippocampi were dissected and transferred into ice-cold buffer containing 137 mM NaCl, 5 mM KCl, 0.85 mM Na2HPO4, 1.5 mM CaCl2, 0.66 mM KH2PO4, 0.28 mM MgSO4, 1 mM MgCl2, 2.7 mM NaHCO3, 1 mM Kynurenic acid and 0.6% D-glucose. Transverse hippocampal slices (400 μm) were prepared using a vibrating blade microtome (VT1200S; Leica Microsystems (Schweiz) AG, Heerbrugg, Switzerland) in the same buffer. Hippocampal slices were individually placed on membrane inserts (Millicell Culture Plate Inserts, 0.4 μm) and cultivated at 35° C., 5% CO2, 95% humidity in a medium containing a 1:1 mixture of BME and MEM (both from Invitrogen) containing 25% heat-inactivated horse serum, 1× GlutaMAX, 1× Penicillin/Streptomycin, 0.6% glucose and 1 mM Kynurenic acid (Stoppini 1991 J. Neurosci. Methods 37(2):173-82). After 48 h in culture, synaptic NMDA receptors were activated by addition of Stevia extract, its major constituents or control substances for 15 min in 140 mM NaCl, 5 mM KCl, 1.3 mM CaCl2, 25 mM HEPES (pH 7.3), 33 mM D-glucose and 0.02 mM bicuculline methiodide. […] An additional positive control comprised the addition of 200 μM glycine to sister cultures. After the treatments, sections were washed and fixed for immunohistochemistry. Markers of enhanced synaptic activity, normally associated with long-term potentiation, representing an ex vivo model of learning and memory were quantitated (see Table 3, below). Treatment of hippocampal cultures with Stevia extract, steviol, isosteviol and stevioside induced one or more biochemical markers typical for LTP (pCREB: activated form of the cAMP response element binding protein; pMAPK: activated form of the mitogen-activated protein kinase; […]

[3] = tested on: pMAPK (activated form of the mitogen-activated protein kinase); test: Hippocampal slice cultures, immunohistochemistry of synaptic marker pMAPK; assay type: cell-based, Wistar rats; set-up: key: ++++ shows a qualitative maximal activation; ++ and + signify a half-maximum and a moderate activation, respectively; ++ and + signify a half-maximum and a moderate activation, respectively; ± indicates no change in immunoreactivity; settings: 15 min treatment after 48 h in culture; vs sister cultures treated with buffer
Experimental: as §1

[4] = tested on: pCREB (activated form of the cAMP response element binding protein); test: Hippocampal slice cultures, immunohistochemistry of synaptic marker pCREB; assay type: cell-based, Wistar rats; set-up: key: ++++ shows a qualitative maximal activation; ++ and + signify a half-maximum and a moderate activation, respectively; ++ and + signify a half-maximum and a moderate activation, respectively; ± indicates no change in immunoreactivity; settings: 15 min treatment after 48 h in culture; vs sister cultures treated with buffer
Experimental: as §1

[5] = tested on: adult mice; settings: systemic administration, adult mice (Kinney et al 2003); cited from earlier work
[6] = tested on: NMDA receptor; settings: rat hippocampal slice, Schaffer collateral stimulation (Bergeron et al 1998); cited from earlier work
[7] = tested on: NMDA receptor; settings: mouse hippocampal slice, Schaffer collateral stimulation (Bergeron et al 1998); cited from earlier work
[8] = tested on: adult mice; settings: systemic administration (Kinney et al 2003); cited from earlier work

Compound | IC50 for tritiated glycine uptake [1] | pMAPK, relative activation of synaptic marker [3] | pCREB, relative activation of synaptic marker [4] | further results
Isosteviol | inactive | ± | + | GluR1, percentage increase of control values [2]: 361%
CN(CC[C@@H](Oc1ccc(C(F)(F)F)cc1)c1ccccc1)CC(=O)O [ORG24598, reference compound] |  |  |  | IC50 [1]: 0.02 µM
CNCC(=O)O [Sarcosine, reference compound] |  |  |  | IC50 [1]: 35.9 µM
CN(CCC(Oc1ccc(-c2ccccc2)cc1)c1ccc(F)cc1)CC(=O)O (stereo not shown) [NFPS, N-[3-(4′-fluorophenyl)-3-(4′-phenylphenoxy)] propylsarcosine] |  |  |  | Prepulse inhibition of the acoustic startle response [5]: enhanced prepulse inhibition of the acoustic startle response; NMDA receptor responses in CA1 pyramidal cells [6]: enhanced NMDA receptor responses in CA1 pyramidal cells were observed; NMDA receptor responses in CA1 pyramidal cells [7]: enhanced NMDA receptor responses in CA1 pyramidal cells were observed; LTP in the dentate gyrus [8]: increased LTP in the dentate gyrus
C=C1C[C@@]23CC[C@H]4[C@@](C)(CCC[C@@]4(C)C(=O)O[C@@H]4O[C@H](CO)[C@@H](O)[C@H](O)[C@H]4O)[C@@H]2CC[C@]1(O[C@@H]1O[C@H](CO)[C@@H](O)[C@H](O[C@@H]2O[C@H](CO)[C@@H](O)[C@H](O)[C@H]2O)[C@H]1O[C@@H]1O[C@H](CO)[C@@H](O)[C@H](O)[C@H]1O)C3 [Rebaudioside A] | inactive | ± | ± | GluR1, relative activation of synaptic marker [2]: ±

Further lines, with some results ahead:

IC50 for tritiated glycine uptake [1] | Compound | pMAPK, relative activation of synaptic marker [3] | pCREB, relative activation of synaptic marker [4] | further results
inactive | C=C1C[C@@]23CC[C@H]4[C@@](C)(CCC[C@@]4(C)C(=O)O)[C@@H]2CC[C@]1(O)C3 [Steviol] | ± | ++ | GluR1, percentage increase of control values [2]: 340%
inactive | C=C1C[C@@]23CC[C@H]4[C@@](C)(CCC[C@@]4(C)C(=O)O[C@@H]4O[C@H](CO)[C@@H](O)[C@H](O)[C@H]4O)[C@@H]2CC[C@]1(O[C@@H]1O[C@H](CO)[C@@H](O)[C@H](O)[C@H]1O[C@@H]1O[C@H](CO)[C@@H](O)[C@H](O)[C@H]1O)C3 [Stevioside] | ++ | ± | GluR1, relative activation of synaptic marker [2]: ±
